# Source: ChEMBL document CHEMBL1139811 (Bioorg Med Chem Lett, 2007)
# Target: T1, Mycobacterial beta-ketoacyl-[acyl-carrier-protein] synthase III (Mycobacterium tuberculosis, UniProt P9WNG3)
# T1 sequence (P9WNG3 whole entry): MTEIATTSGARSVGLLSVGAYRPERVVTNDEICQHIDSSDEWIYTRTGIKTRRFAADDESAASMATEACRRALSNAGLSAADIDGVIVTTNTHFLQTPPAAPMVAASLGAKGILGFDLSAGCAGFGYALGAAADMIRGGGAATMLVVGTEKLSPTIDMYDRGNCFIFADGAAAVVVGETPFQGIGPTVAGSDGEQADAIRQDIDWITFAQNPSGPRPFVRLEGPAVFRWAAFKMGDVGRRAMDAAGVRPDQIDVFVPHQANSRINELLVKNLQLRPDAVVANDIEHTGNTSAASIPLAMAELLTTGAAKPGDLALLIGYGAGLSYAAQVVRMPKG
# Assay: Inhibition of Mycobacterium tuberculosis FabH
row,Structure (SMILES),IC50 [µM]
1,CC(=O)c1cccc(-c2ccc(CC3(C)SC(=O)C(C)=C3O)cc2)c1 (stereo not given),150
2,CC1=C(O)C(C)(Cc2ccc(-c3cc(F)cc(F)c3)cc2)SC1=O (stereo not given),135
3,CC(=O)c1ccc(-c2ccc(CC3(C)SC(=O)C(C)=C3O)cc2)cc1 (stereo not given),54
4,CC1=C(O)C(C)(Cc2ccc(-c3ccc(C(=O)O)cc3)cc2)SC1=O (stereo not given),7
5,COC(=O)c1ccc(-c2ccc(CC3(C)SC(=O)C(C)=C3O)cc2)cc1 (stereo not given),3
6,CC1=C(O)C(C)(Cc2ccc(Oc3ccccc3)cc2)SC1=O (stereo not given),15
7,CC1=C(O)C(C)(Cc2ccc(-c3ccc(F)cc3)cc2)SC1=O (stereo not given),105
8,CC1=C(O)C(C)(Cc2ccc(-c3ccc(-c4ccccc4)cc3)cc2)SC1=O (stereo not given),68
9,CC(=O)c1ccc(-c2ccc(CC3(C)SC(=O)C(C)=C3O)cc2)s1 (stereo not given),200
10,CC1=C(O)C(C)(Cc2ccc(-c3ccc(C)s3)cc2)SC1=O (stereo not given),86
11,CC1=C(O)C(C)(Cc2ccc(-c3ccc(Cl)cc3)cc2)SC1=O (stereo not given),130
12,CC1=C(O)C(C)(Cc2ccc(-c3ccc(C(N)=O)cc3)cc2)SC1=O (stereo not given),4
13,CC1=C(O)C(C)(Cc2ccc(-c3cccc(Cl)c3)cc2)SC1=O (stereo not given),156
14,CC1=C(O)C(C)(Cc2ccc(C(=O)c3ccccc3)cc2)SC1=O (stereo not given),283
15,CC1=C(O)C(C)(Cc2ccc(-c3ccc(F)c(F)c3)cc2)SC1=O (stereo not given),207
